Test results: patent US10308686B2, “Gamma-AApeptides with potent and broad-spectrum antimicrobial activity” (priority 2012, dated 2019)
≈ marks a conversion by molar mass, not a printed value.

Assays:
[1] = system: multi-drug resistant S. epidermidis (RP62A); details: Table 3
[2] = system: human red blood cells (hRBC's); assay: Hemolysis assay; type: cell-based
How it was run: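 Washed human RBCs (K2 EDTA) as 5% v/v suspension in PBS, mixed 1:1 with two-fold serial peptide dilutions (250–1.6 μg/ml, or 1 mg/ml–6.3 μg/ml for lipidated γ-AApeptides) in PBS; 1 h at 37 °C. Supernatant OD 360 nm, normalised to PBS (0%) and 0.2% Triton-X-100 (100%); H50 = concentration giving 50% hemolysis.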

[3] = system: B. subtilis (BR151)
[4] = system: vancomycin-resistant E. faecalis (ATCC 700802); details: Table 3
[5] = system: multi-drug resistant P. aeruginosa ATCC 27853; details: ATCC 27853
[6] = system: methicillin-resistant S. aureus (MRSA, USA100 lineage); details: Table 3
[7] = system: E. coli (JM109)
[8] = system: S. aureus ATCC 33592; type: cell-based; details: serial passage at half-MIC, 17 days
[9] = system: methicillin-resistant S. aureus (ATCC 33592); details: Table 3
[10] = system: B. anthracis; details: Table 3
[11] = system: K. pneumoniae (ATCC 13383)
[12] = system: C. albicans (ATCC 10231); details: ATCC 10231

CCCCCCCCCCCCCCCC(=O)N[C@@H](C)CN(CC(=O)N[C@@H](C)CN(CC(=O)N[C@@H](CC(C)C)CN(CC(=O)N[C@@H](CC(C)C)CN(CC(=O)N[C@@H](CC(C)C)CN(CC(N)=O)C(=O)CCCN)C(=O)CCCN)C(=O)CCCN)C(C)=O)C(C)=O [γAA2] was tested, and the “MIC, S. epidermidis (multi-drug resistant)” value [1] was 4 µg/mL (≈ 3.1 µM), the “Hemolysis (H50)” value [2] was >500 µg/mL and the “MIC, B. subtilis” value [3] was 2.5 µg/mL (≈ 1.94 µM). For the same compound, the “MIC, E. faecalis (vancomycin-resistant)” value [4] was 5 µg/mL (≈ 3.87 µM), the “MIC, P. aeruginosa” value [5] was 25 to 50 µg/mL and the “MIC, MRSA USA100” value [6] was 10 µg/mL (≈ 7.74 µM). For the same compound, the “MIC, E. coli” value [7] was 2.5 µg/mL (≈ 1.94 µM), the “development of resistance (change in MIC over 17 passages), in words” value [8] was “did not cause resistance” and the “MIC, S. aureus (methicillin-resistant)” value [9] was 4 µg/mL (≈ 3.1 µM). For the same compound, the “MIC, B. anthracis (lethal bioweapon)” value [10] was 5 µg/mL (≈ 3.87 µM), the “MIC, K. pneumoniae (causing pneumonia)” value [11] was 5 µg/mL (≈ 3.87 µM) and the “MIC, Fungi C. albicans” value [12] was 5 µg/mL (≈ 3.87 µM).
